Data: US10150737B2, “Compounds for controlling arthropods” (priority 2013, dated 2018)

Tests used:
[1] = system: Ctenocephalides felis; experiment: Ctenocephalides felis - oral test; type: in vivo; details: application rate 100 ppm in citrated cattle blood; after 2 days
Outline: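 Compound in DMSO diluted into citrated cattle blood, fed through a parafilm membrane to about 20 unfed adult cat fleas. Kill in % scored after 2 days (100% = all dead).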

[2] = system: Tetranychus urticae; experiment: Tetranychus urticae - spray test, OP-resistant; type: in vivo; details: bean leaf discs, after 6 days
Outline: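 Compound dissolved in acetone/DMF, diluted with water containing 1000 ppm alkylaryl polyglycol ether emulsifier to test concentrations. Bean leaf discs infested with all stages of spider mites were sprayed; % kill determined after 6 days (100% = all mites dead, 0% = none).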

[3] = system: Myzus persicae; experiment: Myzus persicae - spray test; type: in vivo; details: Chinese cabbage leaf discs, after 6 days
Experimental: Solvent: 78 parts by weight of acetone and 1.5 parts by weight of dimethylformamide
Emulsifier: alkylaryl polyglycol ether
To produce an appropriate active ingredient formulation, 1 part by weight of active ingredient is dissolved using the specified parts by weight of solvent and made up with water containing an emulsifier concentration of 1000 ppm until the desired concentration is attained. To produce further test concentrations, the preparation is diluted with emulsifier-containing water.
Discs of Chinese cabbage leaves (Brassica pekinensis) infested by all stages of the green peach aphid (Myzus persicae) are sprayed with an active ingredient formulation of the desired concentration.
After 6 days, efficacy in % is determined. 100% means that all the aphids have been killed; 0% means that none of the aphids have been killed.

[4] = system: Ctenocephalides felis; experiment: Ctenocephalides felis - in vitro contact tests with adult cat fleas; type: in vivo; details: application rate 5 μg/cm2 (=500 g/ha); after 48 h; fleas dead or moribund
Experimental: For the coating of the test tubes, 9 mg of active ingredient are first dissolved in 1 ml of acetone p.a. and then diluted to the desired concentration with acetone p.a. 250 μl of the solution are distributed homogeneously on the inner walls and base of a 25 ml test tube by turning and rocking on an orbital shaker (rocking rotation at 30 rpm for 2 h). With 900 ppm active ingredient solution and internal surface area 44.7 cm^2, given homogeneous distribution, an area-based dose of 5 μg/cm^2 is achieved.
After the solvent has evaporated off, the tubes are populated with 5-10 adult cat fleas (Ctenocephalides felis), sealed with a perforated plastic lid and incubated in a horizontal position at room temperature and ambient humidity. After 48 h, efficacy is determined. To this end, the test tubes are stood upright and the fleas are knocked to the base of the tube. Fleas which remain motionless at the base or move in an uncoordinated manner are considered to be dead or moribund.
100% efficacy means that all the fleas were dead or moribund. 0% efficacy means that no fleas were harmed.

[5] = logP determination by HPLC on a reversed-phase column (C18); type: physicochemical; details: for logP^a): HPLC-MS method a); for log P: HPLC-MS
[6] = system: Phaedon cochleariae; experiment: Phaedon cochleariae - spray test; type: in vivo; details: larvae on Chinese cabbage leaf discs, after 7 days
Outline: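 Chinese cabbage leaf discs sprayed with compound formulated in acetone/DMF and water containing 1000 ppm emulsifier; once dry, infested with mustard beetle larvae. Efficacy (% larvae killed) scored after 7 days.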

[7] = system: Lucilia cuprina; experiment: Lucilia cuprina test; type: in vivo; details: application rate 100 ppm; L1 larvae; after 2 days
Outline: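 About 20 L1 larvae placed on minced horsemeat treated with compound, formulated in DMSO and diluted with water to test concentration. Kill in % scored after 2 days (100% = all larvae dead, 0% = none).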

[8] = system: Boophilus microplus; experiment: Boophilus microplus - injection test; type: in vivo; details: application rate 20 μg/animal, injection into engorged adult female ticks, after 7 days
Outline: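 Active ingredient in DMSO, 1 μl injected into the abdomen of 5 engorged adult female ticks, then held in a climate-controlled room. Efficacy scored after 7 days from laying of fertile eggs, with non-fertile-looking eggs kept about 42 days for larval hatch; 100% means no fertile eggs.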

[9] = system: Spodoptera frugiperda; experiment: Spodoptera frugiperda - spray test; type: in vivo; details: caterpillars on maize leaf discs, after 7 days
Outline: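 Maize leaf discs sprayed with compound formulated in acetone/DMF and diluted in water containing 1000 ppm alkylaryl polyglycol ether emulsifier, then infested with armyworm caterpillars after drying. Efficacy scored after 7 days as % caterpillars killed (100% all, 0% none).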

[10] = system: Musca domestica; experiment: Musca domestica test; type: in vivo; details: application rate 100 ppm; adult houseflies; after 2 days
Experimental: (§1) Solvent: dimethyl sulphoxide
To produce an appropriate active ingredient formulation, 10 mg of active ingredient are mixed with 0.5 ml of dimethyl sulphoxide, and the concentrate is diluted with water to the desired concentration.
Vessels containing a sponge treated with sugar solution and the active ingredient formulation of the desired concentration are populated with 10 adult houseflies (Musca domestica).
After 2 days, the kill in % is determined. 100% means that all of the flies have been killed; 0% means that none of the flies have been killed.

[11] = system: Boophilus microplus Parkhurst strain, SP-resistant; experiment: Boophilus microplus - dip test; type: in vivo; details: application rate 100 ppm; dip of engorged adult female ticks; after 7 days
Experimental: Test animals: cattle ticks (Boophilus microplus) Parkhurst strain, SP-resistant
as §1
10 mg of active ingredient are dissolved in 0.5 ml of dimethyl sulphoxide. For the purpose of producing a suitable formulation, the active ingredient solution is diluted with water to the concentration desired in each case.
This active ingredient formulation is pipetted into tubes. 8-10 adult engorged female cattle ticks (Boophilus microplus) are transferred into a further tube with holes. The tube is immersed into the active ingredient formulation, and all the ticks are completely wetted. After the liquid has run out, the ticks are transferred on filter discs into plastic dishes and stored in a climate-controlled room.
Efficacy is assessed after 7 days by laying of fertile eggs. Eggs which are not visibly fertile are stored in a climate-controlled cabinet until the larvae hatch after about 42 days. An efficacy of 100% means that none of the ticks has laid any fertile eggs; 0% means that all the eggs are fertile.

[12] = reversed-phase column (C18), Table I-T3

Row | Compound | efficacy (kill) [1] | efficacy ([2]; application rate 500 g/ha) | efficacy ([3]; application rate 500 g/ha) | efficacy [4] | logP^a) [5] | logP^a) [5, 12] | efficacy ([6]; application rate 500 g/ha) | efficacy (kill) [7] | efficacy (laying of fertile eggs) [8] | efficacy ([9]; application rate 500 g/ha) | efficacy (kill) [10] | efficacy (laying of fertile eggs) [11] | pest or weed control at 0.02 mg ([8]; Rhipicephalus microplus, 168 h, read-out: efficacy (laying of fertile eggs)) | efficacy ([3]; application rate 100 g/ha) | efficacy ([2]; application rate 100 g/ha) | efficacy ([6]; application rate 100 g/ha) | efficacy ([9]; application rate 100 g/ha) | logP^a) ([5]; reversed-phase column (C18)) | log P [5, 12]
1 | Cc1cc(C(F)(C(F)(F)F)C(F)(F)F)cc(C)c1-n1cc(-c2cncc(C(=O)NC3CC3)c2)cn1 [I-T3-7] | 100% | 100% | 100% | 100% | 3.4 | 3.4 | 100% | 100% | 100% | 100% | 80% | – | – | – | – | – | – | – | –
2 | Cc1cc(C(F)(C(F)(F)F)C(F)(F)F)cc(C)c1-n1cc(-c2cncc(C(=O)NC3(C#N)CC3)c2)cn1 [I-T3-8] | 100% | 100% | 90% | – | 3.4 | 3.4 | 100% | 100% | 100% | 100% | 100% | – | – | – | – | – | – | – | –
3 | Cc1cc(C(F)(C(F)(F)F)C(F)(F)F)cc(C)c1-n1cc(-c2cccc(C(=O)NC3CC3)c2)cn1 [I-T3-29] | 100% | 100% | 90% | 100% | 3.3 | 3.3 | 100% | 100% | 100% | 100% | 100% | – | – | – | – | – | – | – | –
4 | O=C(NC1CC1)c1cc(-c2cnn(-c3c(F)cc(C(F)(F)F)cc3F)c2)ccc1Cl [I-T3-48, 2-chloro-N-cyclopropyl-5-[1-[2,6-difluoro-4-(trifluoromethyl)phenyl]pyrazol-4-yl]benzamide] | – | – | – | – | – | – | – | – | – | – | 100% | 100% | 100% | – | – | – | – | – | –
5 | CCc1cc(C(F)(C(F)(F)F)C(F)(F)F)cc(C)c1-n1cc(-c2cncc(C(=O)NC3(C#N)CC3)c2)cn1 [I-T3-76] | 100% | 100% | – | – | 3.4 | 3.4 | 100% | 90% | 100% | 100% | 90% | – | – | 90% | – | – | – | – | –
6 | CCc1cc(C(F)(C(F)(F)F)C(F)(F)F)cc(C)c1-n1cc(-c2cncc(C(=O)NC3CC3)c2)cn1 [I-T3-77] | 100% | 100% | – | – | 3.4 | 3.4 | 100% | 100% | 100% | 100% | 100% | – | – | 100% | – | – | – | – | –
7 | Cc1cc(C(F)(C(F)(F)F)C(F)(F)F)cc(C(F)(F)F)c1-n1cc(-c2ccc(Cl)c(C(=O)NC3CSC3)c2)cn1 [I-T3-85] | 100% | – | – | 100% | 4.7 | 4.7 | – | 100% | 100% | – | 100% | – | – | 90% | 100% | 100% | 100% | – | –
8 | N#CC1(NC(=O)c2cc(-c3cnn(-c4c(Cl)cc(OC(F)(F)F)cc4Cl)c3)ccc2Cl)CC1 [I-T3-87] | 100% | – | – | 100% | 3.6 | 3.6 | – | 100% | 100% | – | 100% | – | – | 90% | 100% | 100% | 100% | – | –
9 | Cc1ncc(-c2cnn(-c3c(Cl)cc(C(F)(F)F)cc3Cl)c2)cc1C(=O)NC1CC1 [I-T3-127] | 100% | – | – | 100% | – | – | – | 90% | 100% | – | – | – | – | 100% | 100% | 100% | – | 2.5 | 2.5
10 | Cc1ncc(-c2cnn(-c3c(Cl)cc(C(F)(F)F)cc3Cl)c2)cc1C(=O)N(C)C1CC1 [I-T3-128] | 100% | – | – | 100% | – | – | – | – | 100% | – | – | – | – | 100% | – | 100% | – | 2.8 | 2.8
11 | Cc1ncc(-c2cnn(-c3c(Cl)cc(C(F)(F)F)cc3Cl)c2)cc1C(=O)NC1(C#N)CC1 [I-T3-129] | 100% | – | – | 100% | – | – | – | – | 100% | – | 80% | – | – | 100% | 100% | 100% | – | 2.6 | 2.6
12 | Cc1ncc(-c2cnn(-c3c(Cl)cc(C(F)(F)F)cc3Cl)c2)cc1C(=O)N(C)C1(C#N)CC1 [I-T3-132] | 100% | – | – | 100% | – | – | – | – | 100% | – | – | – | – | 90% | 100% | 100% | – | 2.9 | 2.9
13 | CCN(C(=O)c1cc(-c2cnn(-c3c(Cl)cc(C(F)(F)F)cc3Cl)c2)cnc1Cl)C1CC1 [I-T3-145] | 100% | – | – | 100% | – | – | – | 100% | 100% | – | 90% | – | – | 90% | 100% | 100% | 100% | 3.8 | 3.8
14 | N#Cc1cc(C(F)(F)F)cc(Cl)c1-n1cc(-c2ccc(Cl)c(C(=O)NC3CC3)c2)cn1 [I-T3-174] | – | – | – | – | – | – | – | – | – | – | – | – | – | 100% | 100% | 100% | 100% | – | 3.1
15 | O=C(NC1CC1)c1cc(-c2cnn(-c3c(F)cc(C(F)(F)F)cc3Cl)c2)ccc1Cl [I-T3-186] | – | 100% | 90% | – | – | – | 100% | – | – | 100% | – | – | – | – | – | – | – | – | 3.6
16 | N#CC1(NC(=O)c2cc(-c3cnn(-c4c(F)cc(C(F)(F)F)cc4Cl)c3)ccc2Cl)CC1 [I-T3-187] | – | 100% | 100% | – | – | – | 100% | – | – | 100% | – | – | – | – | – | – | – | – | 3.3
